Experimental data taken from patent publication US7795261B2, “Substituted 1-piperidin-4-yl-4-pyrrolidin-3-yl-piperazine derivatives and their use as neurokinin antagonists” (Janssen Pharmaceutica NV, priority 2002, dated 2010).

Tests used:
[1] = target: NK1 (Homo sapiens, UniProt P25103); assay: Signal transduction (ST), intracellular Ca++ (FLIPR), NK1 antagonistic activity; type: cell-based; conditions: read-out: pIC50 NK1 (converted)
Method: (§1) This test evaluates in vitro functional NK1 antagonistic activity. For the measurements of intracellular Ca^++ concentrations the cells were grown on 96-well (black wall/transparent bottom) plates from Costar for 2 days until they reached confluence. The cells were loaded with 2 μM Fluo3 in DMEM containing 0.1% BSA and 2.5 mM probenecid for 1 h at 37° C. They were washed 3× with a Krebs buffer (140 mM NaCl, 1 mM MgCl2×6H2O, 5 mM KCl, 10 mM glucose, 5 mM HEPES; 1.25 mM CaCl2; pH 7.4) containing 2.5 mM probenecid and 0.1% BSA (Ca^++-buffer). The cells were preincubated with a concentration range of antagonists for 20 min at RT and Ca^++-signals after addition of the agonists were measured in a Fluorescence Image Plate Reader (FLIPR from Molecular Devices, Crawley, England). The peak of the Ca^++-transient was considered as the relevant signal and the mean values of corresponding wells were analysed as described below.
The sigmoidal dose response curves were analysed by computerised curve-fitting, using the GraphPad Program. […] For antagonist responses the IC50-value was calculated using non-linear regression. […]

[2] = target: T1, NK3 (Homo sapiens, UniProt P29371); assay: Signal transduction (ST), intracellular Ca++ (FLIPR), NK3; type: cell-based; conditions: read-out: pIC50 NK3 (converted)
T1 sequence (P29371 1-465): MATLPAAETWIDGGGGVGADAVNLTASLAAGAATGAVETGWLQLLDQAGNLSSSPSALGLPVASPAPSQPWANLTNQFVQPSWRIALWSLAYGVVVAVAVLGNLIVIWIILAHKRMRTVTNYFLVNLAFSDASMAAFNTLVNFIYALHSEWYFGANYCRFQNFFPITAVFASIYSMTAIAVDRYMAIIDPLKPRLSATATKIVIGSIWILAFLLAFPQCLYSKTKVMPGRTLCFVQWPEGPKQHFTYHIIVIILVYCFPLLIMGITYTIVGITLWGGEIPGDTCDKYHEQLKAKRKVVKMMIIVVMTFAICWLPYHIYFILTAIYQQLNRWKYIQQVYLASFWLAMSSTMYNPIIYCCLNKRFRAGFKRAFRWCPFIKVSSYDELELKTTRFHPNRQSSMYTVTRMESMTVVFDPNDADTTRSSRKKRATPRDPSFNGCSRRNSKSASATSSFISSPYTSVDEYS
Method: [The procedure below names another target; the source lists this target under the same test.] as §1
The sigmoidal dose response curves were analysed by computerised curve-fitting, using the GraphPad Program. […] For antagonist responses the IC50-value was calculated using non-linear regression.
The last columns indicates—without being limited therefore—for which the compounds might be most suitable. Of course, since for some neurokinin receptors no data was determined, it is obvious that these compounds might be attributed to another suitable use.

Chain of NK1 (P25103 whole entry): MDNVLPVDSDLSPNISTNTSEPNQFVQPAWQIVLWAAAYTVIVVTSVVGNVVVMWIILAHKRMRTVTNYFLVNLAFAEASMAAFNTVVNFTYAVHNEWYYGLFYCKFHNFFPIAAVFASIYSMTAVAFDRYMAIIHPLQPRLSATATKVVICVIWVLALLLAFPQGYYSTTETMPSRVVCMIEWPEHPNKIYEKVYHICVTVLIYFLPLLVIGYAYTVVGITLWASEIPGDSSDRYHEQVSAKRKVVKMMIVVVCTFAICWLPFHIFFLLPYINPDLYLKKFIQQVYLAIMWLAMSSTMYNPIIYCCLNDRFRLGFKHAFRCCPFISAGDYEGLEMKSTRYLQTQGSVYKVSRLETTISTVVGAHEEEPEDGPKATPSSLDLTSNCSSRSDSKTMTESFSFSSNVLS

Compound | IC50 [1] [nM] | IC50 [2] [nM]
Cc1ccccc1-n1cncc1CN1CCC(N2CCN([C@H]3CCN(C(=O)c4cc(C(F)(F)F)cc(C(F)(F)F)c4)[C@H](Cc4ccccc4)C3)CC2)C1 (stereo partly shown) [Compound 9] | 39.8 | 1260
O=C(c1cc(C(F)(F)F)cc(C(F)(F)F)c1)N1CC[C@H](N2CCN(C3CCN(Cc4nc5ccccc5[nH]4)C3)CC2)C[C@H]1Cc1ccccc1 (stereo partly shown) [Compound 10] | 100 | 6310
CCOCCn1c(CN2CCC(N3CCN([C@H]4CCN(C(=O)c5cc(C(F)(F)F)cc(C(F)(F)F)c5)[C@H](Cc5ccccc5)C4)CC3)C2)nc2ccccc21 (stereo partly shown) [Compound 11] | 126 | 3160
N#Cc1cccc(C(=O)N2CCC(N3CCN([C@H]4CCN(C(=O)c5cc(C(F)(F)F)cc(C(F)(F)F)c5)[C@H](Cc5ccccc5)C4)CC3)C2)c1 (stereo partly shown) [Compound 12] | 79.4 | 126
CC(C)Oc1cccc(C(=O)N2CCC(N3CCN([C@H]4CCN(C(=O)c5cc(C(F)(F)F)cc(C(F)(F)F)c5)[C@H](Cc5ccccc5)C4)CC3)C2)c1 (stereo partly shown) [Compound 15] | 31.6 | 2000
COc1cccc(OC)c1C(=O)N1CCC(N2CCN([C@H]3CCN(C(=O)c4cc(C(F)(F)F)cc(C(F)(F)F)c4)[C@H](Cc4ccccc4)C3)CC2)C1 (stereo partly shown) [Compound 18] | 25.1 | 2510
O=C(c1ccc(F)c(F)c1)N1CCC(N2CCN([C@H]3CCN(C(=O)c4cc(C(F)(F)F)cc(C(F)(F)F)c4)[C@H](Cc4ccccc4)C3)CC2)C1 (stereo partly shown) [Compound 20] | 126 | 5010
O=C(c1ccc(Cl)cc1Cl)N1CCC(N2CCN([C@H]3CCN(C(=O)c4cc(C(F)(F)F)cc(C(F)(F)F)c4)[C@H](Cc4ccccc4)C3)CC2)C1 (stereo partly shown) [Compound 22] | 50.1 | 2510
Cc1occc1C(=O)N1CCC(N2CCN([C@H]3CCN(C(=O)c4cc(C(F)(F)F)cc(C(F)(F)F)c4)[C@H](Cc4ccccc4)C3)CC2)C1 (stereo partly shown) [Compound 36] | 25.1 | 200
Cc1cc(C(=O)N2CCC(N3CCN([C@H]4CCN(C(=O)c5cc(C(F)(F)F)cc(C(F)(F)F)c5)[C@H](Cc5ccccc5)C4)CC3)C2)c(C)o1 (stereo partly shown) [Compound 37] | 39.8 | 2000
Cc1oc(-c2ccccc2)cc1C(=O)N1CCC(N2CCN([C@H]3CCN(C(=O)c4cc(C(F)(F)F)cc(C(F)(F)F)c4)[C@H](Cc4ccccc4)C3)CC2)C1 (stereo partly shown) [Compound 38] | 200 | 7940
O=C(c1cccs1)N1CCC(N2CCN([C@H]3CCN(C(=O)c4cc(C(F)(F)F)cc(C(F)(F)F)c4)[C@H](Cc4ccccc4)C3)CC2)C1 (stereo partly shown) [Compound 42] | 25.1 | 251
Cc1cc(C(=O)N2CCC(N3CCN([C@H]4CCN(C(=O)c5cc(C(F)(F)F)cc(C(F)(F)F)c5)[C@H](Cc5ccccc5)C4)CC3)C2)no1 (stereo partly shown) [Compound 47] | 39.8 | 3980
Cc1noc(C)c1C(=O)N1CCC(N2CCN([C@H]3CCN(C(=O)c4cc(C(F)(F)F)cc(C(F)(F)F)c4)[C@H](Cc4ccccc4)C3)CC2)C1 (stereo partly shown) [Compound 48] | 15.8 | 2510
Cc1nc(C)c(C(=O)N2CCC(N3CCN([C@H]4CCN(C(=O)c5cc(C(F)(F)F)cc(C(F)(F)F)c5)[C@H](Cc5ccccc5)C4)CC3)C2)s1 (stereo partly shown) [Compound 50] | 6.31 | 3160
Cc1nnsc1C(=O)N1CCC(N2CCN([C@H]3CCN(C(=O)c4cc(C(F)(F)F)cc(C(F)(F)F)c4)[C@H](Cc4ccccc4)C3)CC2)C1 (stereo partly shown) [Compound 51] | 63.1 | 3980
O=C(c1csnn1)N1CCC(N2CCN([C@H]3CCN(C(=O)c4cc(C(F)(F)F)cc(C(F)(F)F)c4)[C@H](Cc4ccccc4)C3)CC2)C1 (stereo partly shown) [Compound 52] | 31.6 | 631
O=C(c1snnc1-c1ccccc1)N1CCC(N2CCN([C@H]3CCN(C(=O)c4cc(C(F)(F)F)cc(C(F)(F)F)c4)[C@H](Cc4ccccc4)C3)CC2)C1 (stereo partly shown) [Compound 53] | 39.8 | 3160
O=C(c1cccc2ccccc12)N1CCC(N2CCN([C@H]3CCN(C(=O)c4cc(C(F)(F)F)cc(C(F)(F)F)c4)[C@H](Cc4ccccc4)C3)CC2)C1 (stereo partly shown) [Compound 54] | 39.8 | 794

Compound | IC50 [1] [nM] | IC50 [2] [nM]
COc1ccc2[nH]c(C(=O)N3CCC(N4CCN([C@H]5CCN(C(=O)c6cc(C(F)(F)F)cc(C(F)(F)F)c6)[C@H](Cc6ccccc6)C5)CC4)C3)cc2c1 (stereo partly shown) [Compound 55] | 316 | 7940
Cn1c(C(=O)N2CCC(N3CCN([C@H]4CCN(C(=O)c5cc(C(F)(F)F)cc(C(F)(F)F)c5)[C@H](Cc5ccccc5)C4)CC3)C2)cc2ccccc21 (stereo partly shown) [Compound 57] | 126 | 3160
O=C(c1cnc2ccccc2n1)N1CCC(N2CCN([C@H]3CCN(C(=O)c4cc(C(F)(F)F)cc(C(F)(F)F)c4)[C@H](Cc4ccccc4)C3)CC2)C1 (stereo partly shown) [Compound 60] | 31.6 | 2510
O=C(C1CCc2cc(F)ccc2O1)N1CCC(N2CCN([C@H]3CCN(C(=O)c4cc(C(F)(F)F)cc(C(F)(F)F)c4)[C@H](Cc4ccccc4)C3)CC2)C1 (stereo partly shown) [Compound 61] | 31.6 | 6310
O=C(c1cc2ccccc2o1)N1CCC(N2CCN([C@H]3CCN(C(=O)c4cc(C(F)(F)F)cc(C(F)(F)F)c4)[C@H](Cc4ccccc4)C3)CC2)C1 (stereo partly shown) [Compound 62] | 63.1 | 3980
O=C(c1cc2ccccc2s1)N1CCC(N2CCN([C@H]3CCN(C(=O)c4cc(C(F)(F)F)cc(C(F)(F)F)c4)[C@H](Cc4ccccc4)C3)CC2)C1 (stereo partly shown) [Compound 63] | 126 | 3160
COc1cc(CC(=O)N2CCC(N3CCN([C@H]4CCN(C(=O)c5cc(C(F)(F)F)cc(C(F)(F)F)c5)[C@H](Cc5ccccc5)C4)CC3)C2)cc(OC)c1OC (stereo partly shown) [Compound 65] | 12.6 | 3160
O=C(c1ccno1)N1CCC(N2CCN([C@H]3CCN(C(=O)c4cc(C(F)(F)F)cc(C(F)(F)F)c4)[C@H](Cc4ccccc4)C3)CC2)C1 (stereo partly shown) [Compound 68] | 31.6 | 1580
CC1(C(=O)N2CCC(N3CCN([C@H]4CCN(C(=O)c5cc(C(F)(F)F)cc(C(F)(F)F)c5)[C@H](Cc5ccccc5)C4)CC3)C2)CC1 (stereo partly shown) [Compound 73] | 10 | 1580
O=C(C1CCCC1)N1CCC(N2CCN([C@H]3CCN(C(=O)c4cc(C(F)(F)F)cc(C(F)(F)F)c4)[C@H](Cc4ccccc4)C3)CC2)C1 (stereo partly shown) [Compound 74] | 20 | 501
O=C(C1CCCO1)N1CCC(N2CCN([C@H]3CCN(C(=O)c4cc(C(F)(F)F)cc(C(F)(F)F)c4)[C@H](Cc4ccccc4)C3)CC2)C1 (stereo partly shown) [Compound 97] | 10 | 2510
O=C(C1COc2ccccc2O1)N1CCC(N2CCN([C@H]3CCN(C(=O)c4cc(C(F)(F)F)cc(C(F)(F)F)c4)[C@H](Cc4ccccc4)C3)CC2)C1 (stereo partly shown) [Compound 98] | 12.6 | 5010
O=C(C1COC2CCCCC2O1)N1CCC(N2CCN([C@H]3CCN(C(=O)c4cc(C(F)(F)F)cc(C(F)(F)F)c4)[C@H](Cc4ccccc4)C3)CC2)C1 (stereo partly shown) [Compound 99] | 7.94 | 3160
O=C(C(NCCO)c1ccccc1)N1CCC(N2CCN([C@H]3CCN(C(=O)c4cc(C(F)(F)F)cc(C(F)(F)F)c4)[C@H](Cc4ccccc4)C3)CC2)C1 (stereo partly shown) [Compound 106] | 31.6 | 3980
O=C(C(c1ccccc1)N1CCCC1)N1CCC(N2CCN(C3CCN(C(=O)c4cc(C(F)(F)F)cc(C(F)(F)F)c4)C(Cc4ccccc4)C3)CC2)C1 (stereo not shown) [Compound 108] | 31.6 | 2510
COC(C(=O)N1CCC(N2CCN(C3CCN(C(=O)c4cc(C(F)(F)F)cc(C(F)(F)F)c4)C(Cc4ccccc4)C3)CC2)C1)c1ccccc1 (stereo not shown) [Compound 109] | 12.6 | 7940
Cc1nccn1C(C(=O)N1CCC(N2CCN(C3CCN(C(=O)c4cc(C(F)(F)F)cc(C(F)(F)F)c4)C(Cc4ccccc4)C3)CC2)C1)c1ccccc1 (stereo not shown) [Compound 110] | 20 | 5010
O=C(C(c1ccccc1)n1cc(Br)cn1)N1CCC(N2CCN([C@H]3CCN(C(=O)c4cc(C(F)(F)F)cc(C(F)(F)F)c4)[C@H](Cc4ccccc4)C3)CC2)C1 (stereo partly shown) [Compound 111] | 79.4 | 6310
CC(C)(C)OC(=O)N1CCC(N2CCN(C3CCN(C(=O)c4cc(C(F)(F)F)cc(C(F)(F)F)c4)C(Cc4ccccc4)C3)CC2)C1 (stereo not shown) [Compound 130] | 39.8 | 3160
